Reference: patent US4578489A (priority 1982, dated 1986)

Tests used:
Format in all cases: cell-based
[1] = tested on: Cladosporium cladosporioides; experiment: Minimum inhibitory concentration against fungi, agar incorporation test, strain O; details: malt extract/agar
Method: (§1) The invention is carried out using the known agar incorporation test in the following fungi:
(O) Cladosporium cladosporioides
(§2) in a malt extract/agar (Merck). Inhibition is effected by adding sufficient of each of the various compounds to give final concentrations in the agar of 2, 5, 10, 50 and 100 mg/liter. The concentrations (mg/liters) required to inhibit the growth of the fungi (starting from traces of fungi added dropwise) are illustrated in Table 3.

[2] = tested on: Chlorella vulgaris; experiment: Action against algae: Chlorella vulgaris; design: key: --: no growth on the agar, 3 ppm have destroyed the algae in 6 hours; details: 3 mg/liter; for Growth on the agar (algae-destroying action): 6 hours exposure, 14 days incubation; for Growth in the medium (growth inhibition): 14 days
Method: Cultures of Chlorella vulgaris which had been grown for 14 days in algae nutrient media are diluted in the ratio 1/200 in the algae nutrient medium. Each of the compounds listed in Table 1 is then added in such an amount as to give a final concentration of 3 mg/liter. After incubating for 6 hours, 10 μl of each culture are withdrawn and added dropwise to algae/agar in order to determine the destructive action. After the cultures have incubated for 14 days under illumination (14 hours of light and 10 hours of darkness, alternately), the growth in the algae medium (determination of growth inhibition) and on the algae/agar (determination of algae-destroying action) is assessed visually.

[3] = tested on: Alcaligenes denitrificans; experiment: Minimum inhibitory concentration against bacteria, strain E; details: 24 hours at 30° C.; tested at 100 and 300 mg/liter
Method: (§3) Overnight cultures, grown in Caso peptone bouillon (Merck) of the various strains of bacteria: (A) Proteus vulgaris, (B) Pseudomonas aeruginosa, (C) Enterobacter aerogenes, (D) Serratia marcencens, (E) Alcaligenes denitrificans and (F) Bacillus subtilis are each diluted in a ratio of 1/1000 in saline solution. Sufficient of the suspensions is put into Caso peptone bouillon to dilute the bacteria again in the ratio of 1/1000. Each of the compounds listed in Table 1 is then added in amounts of 100 and 300 mg/liter. After being incubated for 24 hours at 30° C. in a shaking waterbath, the turbidity of the samples is evaluated.

[4] = tested on: Pseudomonas aeruginosa; experiment: Minimum inhibitory concentration against bacteria, strain B; details: 24 hours at 30° C.; tested at 100 and 300 mg/liter
Method: as §3

[5] = tested on: Chaetomium globosum; experiment: Minimum inhibitory concentration against fungi, agar incorporation test, strain S; details: malt extract/agar
Method: as §1, §2

[6] = tested on: Aspergillus phoenicis; experiment: Minimum inhibitory concentration against fungi, agar incorporation test, strain L; details: malt extract/agar
Method: as §1
(L) Aspergillus phoenicis
as §2

[7] = tested on: Penicillium funiculosum; experiment: Minimum inhibitory concentration against fungi, agar incorporation test, strain M; details: malt extract/agar
Method: as §1
(M) Penicillium funiculosum
as §2

[8] = tested on: Candida albicans; experiment: Minimum inhibitory concentration against fungi, agar incorporation test, strain P; details: malt extract/agar
Method: as §1, §2

[9] = tested on: Aureobasidium pullulans; experiment: Minimum inhibitory concentration against fungi, agar incorporation test, strain R; details: malt extract/agar
Method: as §1
(R) Aureobasidium pullulans
as §2

[10] = tested on: Proteus vulgaris; experiment: Minimum inhibitory concentration against bacteria, strain A; details: 24 hours at 30° C.; tested at 100 and 300 mg/liter
Method: as §3

[11] = tested on: Aspergillus niger; experiment: Minimum inhibitory concentration against fungi, agar incorporation test, strain K; details: malt extract/agar
Method: as §1, §2

[12] = tested on: Serratia marcencens; experiment: Minimum inhibitory concentration against bacteria, strain D; details: 24 hours at 30° C.; tested at 100 and 300 mg/liter
Method: as §3

[13] = tested on: Enterobacter aerogenes; experiment: Minimum inhibitory concentration against bacteria, strain C; details: 24 hours at 30° C.; tested at 100 and 300 mg/liter
Method: as §3

[14] = tested on: Endomyces geotrichum; experiment: Minimum inhibitory concentration against fungi, agar incorporation test, strain Q; details: malt extract/agar
Method: as §1, §2

[15] = tested on: Bacillus subtilis; experiment: Minimum inhibitory concentration against bacteria, strain F; details: 24 hours at 30° C.; tested at 100 and 300 mg/liter
Method: as §3

[16] = tested on: Alternaria alternata; experiment: Minimum inhibitory concentration against fungi, agar incorporation test, strain N; details: malt extract/agar
Method: as §1, §2

Compound | MIC against fungi, strain O [1] | Growth on the agar (algae-destroying action) [2] | Growth in the medium (growth inhibition) [2] | MIC against bacteria, strain E [3] | MIC against bacteria, strain B [4] | MIC against fungi, strain S [5] | MIC against fungi, strain L [6] | MIC against fungi, strain M [7] | MIC against fungi, strain P [8] | MIC against fungi, strain R [9] | MIC against bacteria, strain A [10] | MIC against fungi, strain K [11] | MIC against bacteria, strain D [12] | MIC against bacteria, strain C [13] | MIC against fungi, strain Q [14] | MIC against bacteria, strain F [15] | MIC against fungi, strain N [16]
(CH3)2 N(OH)C16 H37 / Tributyldichloro [Example 15] | 2 mg/L | -- | -- | 300 mg/L | 100 mg/L | 2 mg/L | 2 mg/L | 5 mg/L | 5 mg/L | 2 mg/L | 100 mg/L | 2 mg/L | > 300 mg/L | > 300 mg/L | 10 mg/L | 100 mg/L | 2 mg/L
CCCCCCCCCCCCC(=O)NCCC[N+](C)(C)O.CCC[CH2][Sn-]([Cl])([Cl])([CH2]CCC)[CH2]CCC [Example 29, (C12 H25 CO)NH(CH2)3 N(OH)(CH3)2 / Tributyldichloro] | ≤ 5 mg/L | -- | -- | 300 mg/L | 100 mg/L | ≤ 5 mg/L | ≤ 5 mg/L | 10 mg/L | ≤ 5 mg/L | ≤ 5 mg/L | 100 mg/L | ≤ 5 mg/L | > 300 mg/L | > 300 mg/L | 10 mg/L | 100 mg/L | ≤ 5 mg/L
